Experimental data published in patent US10294229B2, “Heteroaryl substituted aminopyridine compounds” (BRISTOL-MYERS SQUIBB COMPANY, priority 2015, dated 2019).
Blank lines part the entries; values can stand above or below the compound they belong to.

Experiments:
[1] = system: Human whole blood stimulated with a TLR2 agonist (lipoteichoic acid), IL-6 levels; test: IRAK4 Whole Blood Assay; format: cell-based; details: lipoteichoic acid 10 μg/mL
How it was run: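 ACD-A-anticoagulated human whole blood was preincubated with compounds for 60 min at 37 °C under 5% CO2. It was then stimulated with 10 μg/mL lipoteichoic acid (final) in RPMI for 5 h. IL-6 in plasma supernatants was measured by flow cytometry bead assay.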

IRAK4 = IRAK4 (Homo sapiens (Human), UniProt Q9NWZ3); test: IRAK4 Inhibition Assay; format: biochemical; details: ATP 500 μM; IRAK4 0.6 nM
How it was run: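 Enzyme 0.6 nM, ATP 500 μM, FL-peptide 1.5 μM, DMSO 1.6%; HEPES pH 7.2/MgCl2/Brij 35/DTT buffer. RT, 60 min, EDTA stop. Mobility-shift product/substrate ratio; % inhib vs no-enzyme and vehicle controls.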

Caco-2 cells = test: Caco-2 Permeability Assay; format: in vitro ADME; details: test compound 3 μM
How it was run: (§1)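 Bidirectional permeability measured over 2 h at 37° C, compound dosed at 3 μM in the donor compartment (apical for absorptive, basolateral for secretive) with plain buffer as receiver.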

[2] = Caco-2 Permeability Assay; format: in vitro ADME; details: human, Caco-2, test compound 3 μM
How it was run: as §1

Sequence of IRAK4 (Q9NWZ3 whole entry, species assumed): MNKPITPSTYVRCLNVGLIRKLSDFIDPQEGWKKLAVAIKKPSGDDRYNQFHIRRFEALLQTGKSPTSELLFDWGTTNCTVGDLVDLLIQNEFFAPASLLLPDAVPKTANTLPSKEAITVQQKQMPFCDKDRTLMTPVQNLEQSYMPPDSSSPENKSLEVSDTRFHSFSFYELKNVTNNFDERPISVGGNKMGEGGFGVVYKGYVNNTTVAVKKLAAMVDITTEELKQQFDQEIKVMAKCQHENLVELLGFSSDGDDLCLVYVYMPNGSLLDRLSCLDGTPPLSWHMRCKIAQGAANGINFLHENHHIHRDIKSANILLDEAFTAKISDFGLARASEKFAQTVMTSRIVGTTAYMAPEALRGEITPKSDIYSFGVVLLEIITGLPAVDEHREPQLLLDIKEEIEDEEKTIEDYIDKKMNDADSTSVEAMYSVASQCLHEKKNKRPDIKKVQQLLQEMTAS

Compound: CC(C)Nc1cc(-n2ncc3cc(C#N)cnc32)ncc1-c1cn(CC2CC2(F)F)nn1 (single isomer, unassigned) [Example 32, 1-(5-(1-((2,2-difluorocyclopropyl)methyl)-1H-1,2,3-triazol-4-yl)-4-(isopropylamino)pyridin-2-yl)-1H-pyrazolo[3,4-b]pyridine-5-carbonitrile]
EC50 [1]: 370 nM
IC50 (IRAK4): 5 nM
Caco-2 Permeability (Caco-2 cells): 16.2 ×10⁻⁶ cm/s

Compound: CCC(C)(O)Cn1cc(-c2cnc(-n3ncc4cc(C#N)cnc43)cc2NC(C)C)nn1 (single isomer, unassigned) [Example 93, 1-(5-(1-(2-hydroxy-2-methylbutyl)-1H-1,2,3-triazol-4-yl)-4-(isopropylamino)pyridin-2-yl)-1H-pyrazolo[3,4-b]pyridine-5-carbonitrile]
EC50 [1]: 280 nM
IC50 (IRAK4): 10 nM
Caco-2 Permeability (Caco-2 cells): 11.5 ×10⁻⁶ cm/s

Compound: CC(C)Nc1cc(-n2ncc3cc(C#N)cnc32)ncc1-c1cc(C2COCCN2)no1 (single isomer, unassigned) [Example 400, Isomer 1, 1-(4-(isopropylamino)-5-(3-(morpholin-3-yl)isoxazol-5-yl)pyridin-2-yl)-1H-pyrazolo[3,4-b]pyridine-5-carbonitrile]
EC50 ([1]; Homo sapiens): 230 nM
IC50 (IRAK4): 3 nM
Caco-2 Permeability (Caco-2 cells; listed as 400, Isomer 1): 22.4 ×10⁻⁶ cm/s

Compound: CC(C)Nc1cc(-n2ncc3cc(C#N)cnc32)ncc1-c1cc(C2COCCN2)no1 (single isomer, unassigned) [Example 400, Isomer 2, 1-(4-(isopropylamino)-5-(3-(morpholin-3-yl)isoxazol-5-yl)pyridin-2-yl)-1H-pyrazolo[3,4-b]pyridine-5-carbonitrile]
EC50 ([1]; listed as 400, Isomer 2): 270 nM
IC50 (IRAK4): 6 nM
Caco-2 Permeability (Caco-2 cells; listed as 400, Isomer 2): 53 ×10⁻⁶ cm/s

Compound: CC(C)Nc1cc(-n2ncc3cc(C#N)cnc32)ncc1-c1cn(C2CCOC2)nn1 (centres unmarked) [Example 215, 1-(4-(isopropylamino)-5-(1-(tetrahydrofuran-3-yl)-1H-1,2,3-triazol-4-yl)pyridin-2-yl)-1H-pyrazolo[3,4-b]pyridine-5-carbonitrile]
EC50 [1]: 1310 nM
IC50 (IRAK4): 8 nM
Caco-2 Permeability (Caco-2 cells): 10.4 ×10⁻⁶ cm/s

Compound: CC(C)Nc1cc(-n2ncc3cc(C#N)cnc32)ncc1-c1cc(C2CCCCN2)no1 [Example 413, (S)-1-(4-(isopropylamino)-5-(3-(piperidin-2-yl)isoxazol-5-yl)pyridin-2-yl)-1H-pyrazolo[3,4-b]pyridine-5-carbonitrile]
EC50 [1]: 300 nM
IC50 (IRAK4): 5 nM
Caco-2 Permeability (Caco-2 cells): 13.9 ×10⁻⁶ cm/s

Compound: CC(C)Nc1cc(-n2ncc3cc(C#N)cnc32)ncc1-c1cc(CC(C)(C)O)on1 [Example 439, 1-(5-(5-(2-hydroxy-2-methylpropyl)isoxazol-3-yl)-4-(isopropylamino)pyridin-2-yl)-1H-pyrazolo[3,4-b]pyridine-5-carbonitrile]
EC50 [1]: 250 nM
Caco-2 Permeability (Caco-2 cells): 31 ×10⁻⁶ cm/s

Compound: CCNc1cc(-n2ncc3cc(C#N)cnc32)ncc1C1=NOC(CCC(C)(C)O)C1 (centres unmarked) [Example 440, 1-(4-(ethylamino)-5-(5-(3-hydroxy-3-methylbutyl)-4,5-dihydroisoxazol-3-yl)pyridin-2-yl)-1H-pyrazolo[3,4-b]pyridine-5-carbonitrile]
EC50 ([1]; Homo sapiens): 280 nM
IC50 (IRAK4): 4 nM
Papp at 2 h, 3 µM [2]: 31.6 ×10⁻⁶ cm/s

Compound: CC(C)(O)CCC1CC(c2cnc(-n3ncc4cc(C#N)cnc43)cc2NCC(F)F)=NO1 (centres unmarked) [Example 443, 1-(4-((2,2-difluoroethyl)amino)-5-(5-(3-hydroxy-3-methylbutyl)-4,5-dihydroisoxazol-3-yl)pyridin-2-yl)-1H-pyrazolo[3,4-b]pyridine-5-carbonitrile]
EC50 [1]: 390 nM
IC50 (IRAK4): 2 nM
Papp at 2 h, 3 µM [2]: 14.1 ×10⁻⁶ cm/s

Further lines, results first:

EC50 [1]: 290 nM
IC50 (IRAK4): 2 nM
Caco-2 Permeability (Caco-2 cells): 3.2 ×10⁻⁶ cm/s
Compound: CC(C)Nc1cc(-n2ncc3cc(C#N)cnc32)ncc1-c1cn([C@@H]2CCN(S(C)(=O)=O)C[C@H]2F)nn1 (single isomer, unassigned) [Example 211, 1-(5-(1-((trans)-3-fluoro-1-(methylsulfonyl)piperidin-4-yl)-1H-1,2,3-triazol-4-yl)-4-(isopropylamino)pyridin-2-yl)-1H-pyrazolo[3,4-b]pyridine-5-carbonitrile]

EC50 [1]: 250 nM
IC50 (IRAK4): 2 nM
Caco-2 Permeability (Caco-2 cells): 3.5 ×10⁻⁶ cm/s
Compound: CC(=O)N1CCCC(n2cc(-c3cnc(-n4ncc5cc(C#N)cnc54)cc3NC(C)C)nn2)C1 (centres unmarked) [Example 161, 1-(5-(1-(1-acetylpiperidin-3-yl)-1H-1,2,3-triazol-4-yl)-4-(isopropylamino)pyridin-2-yl)-1H-pyrazolo[3,4-b]pyridine-5-carbonitrile]

EC50 [1]: 470 nM
IC50 (IRAK4): 2 nM
Caco-2 Permeability (Caco-2 cells): 30.2 ×10⁻⁶ cm/s
Compound: CC(=O)N1CCC[C@@H](c2cc(-c3cnc(-n4ncc5cc(C#N)cnc54)cc3NC(C)C)on2)C1 [Example 409, (R)-1-(5-(3-(1-acetylpiperidin-3-yl)isoxazol-5-yl)-4-(isopropylamino)pyridin-2-yl)-1H-pyrazolo[3,4-b]pyridine-5-carbonitrile]

EC50 [1]: 260 nM
IC50 (IRAK4): 2 nM
Caco-2 Permeability (Caco-2 cells): 31.7 ×10⁻⁶ cm/s
Compound: CCNc1cc(-n2ncc3cc(C#N)cnc32)ncc1C1=NOC(CCC(C)(C)O)C1 (centres unmarked) [Example 441, 1-(4-(ethylamino)-5-(5-(3-hydroxy-3-methylbutyl)-4,5-dihydroisoxazol-3-yl)pyridin-2-yl)-1H-pyrazolo[3,4-b]pyridine-5-carbonitrile]
